Measured values taken from paper PMC10820135, “Pharmacokinetic, Tissue Distribution, Metabolite, and Toxicity Evaluation of the Matrine Derivative, (6aS, 10S, 11aR, 11bR, 11cS)-10-Methylaminododecahydro-3a, 7a-Diaza-benzo (de) Anthracene-8-thione” (Molecules, 2024).
“Also recorded” adds a separate entry of the source. Read-outs that look alike come from different tables or passages of the source.

Experiments:
[1] = Plasma pharmacokinetics of MASM in rats, non-compartmental analysis; assay type: in vivo, Sprague-Dawley rats; details: rat
Protocol: UHPLC analysis was performed using a Thermo Accela AS system, employing an ACQUITY UPLC®BEH C18 (Waters Corporation, Wexfords, Ireland) (1.7 µm, 2.1 × 100 mm) column and a binary solvent system consisting of water containing 0.1% formic acid as mobile phase A and acetonitrile as mobile phase B. For pharmacokinetic evaluation, the gradient elution was set as follows: 97% A from 0 to 2 min, 97–70% A from 2 to 3 min, 70–20% A from 3 to 3.5 min, 20% A from 3.5 to 3.6 min, 20–97% A from 3.6 to 3.7 min, and 97% A from 3.7 to 5 min. For the metabolic test, the gradient elution in full scan mode was set as follows: 97% A from 0 to 2 min, 97–70% A from 2 to 4 min, 70–20% A from 4 to 6 min, 20% A from 6 to 7 min, 20–97% A from 7 to 8 min, and 97% A from 8 to 10 min. The flow rate was 0.2 mL/min, with a temperature of 40 °C maintained and an injection volume of 5 μL. The QQQ-MS/MS analysis was conducted using a Thermo TSQ QUANTUM ACCESS MAX system equipped with an electrospray ionization (ESI) source. The spray voltages were set at 4.0 kV and 2.5 kV for positive and negative ion modes, respectively; capillary and vaporizer temperatures were 320 °C and 350 °C, respectively; sheath and aux gas pressures were 35 and 10 psi, respectively.
A precisely measured MASM sample weighing 400 mg was dissolved in normal saline to create aqueous solutions with concentrations of 8.0, 6.0, and 1.5 mg/mL for intraperitoneal, oral, and intravenous administrations at doses of 80 mg/kg, 60 mg/kg, and 15 mg/kg, respectively.
Seventy Sprague-Dawley rats were fasted overnight before dosing, with free access to water. Subsequently, the rats were randomly and equally divided into 7 groups: the control groups received 3 different routes of administration: intravenous, intraperitoneal, and intragastric (NS, saline 1 mL/100 g); MASM intraperitoneal group (A, i.p. 80 mg/kg), MASM intragastrical group (B, i.g. 60 mg/kg), MASM intravenous group (C, i.v. 15 mg/kg), and DMASM intragastrical group (D, i.g. 60 mg/kg). It is important to note that the recommended clinical dose of matrine injection is 0.15 g, which is equivalent to a dosage of 15 mg/kg in rats. MASM was administered via tail vein injection at a dosage of 1 mL/100 g for intravenous dosing, while for intraperitoneal dosing, MASM was injected at the lower-right side of the abdomen of rats. Blood samples (approximately 0.3 mL) were collected from the eye socket at specific time intervals (0.083, 0.167, 0.25, 0.5, 1, 1.5, 2, 4, 6, 9, 12, and 24 h) after administration for each group. These samples were then placed in centrifuge tubes containing heparin sodium, subjected to centrifugation at 4000 rpm for 15 min, and the resulting supernatant was collected and stored at −80 °C until further analysis. During the analysis of the plasma sample, protein precipitation was carried out using a plasma-to-acetonitrile ratio of 1:3, and 5μL of the resulting supernatant was injected. The developed UHPLC-QQQ-MS/MS analysis method underwent a series of validations, and the peak area of the plasma sample was obtained employing the Xcalibur 2.2 data-processing system. The concentrations of MASM in plasma were then determined using linear regression equations. Subsequently, the in vivo pharmacokinetic parameters were calculated using the non-compartment model in DAS 3.0 software. Blood concentration–time curves were generated using Prism 8.0 (GraphPad Software Inc., San Diego, CA, USA).

ICR mice = experiment: Acute toxicity of MASM in mice via intravenous administration; assay type: in vivo
Protocol: (§1) All mice were administered MASM intravenously. The body weight of each mouse was measured on days 7 and 14. On the 14th day, all mice were euthanized, and the heart, liver, spleen, lung, and kidney were collected and weighed immediately. Serum was collected from the eyeballs for further biochemical analysis, and a small portion of each tissue and organ was fixed in 4% […] solution for histopathological examination. Bar graphs were generated applying Prism 8.0 (GraphPad Software Inc., San Diego, CA, USA), and HE staining samples were captured using the Leica image system.

[2] = as above; assay type: in vivo; details: ICR, mouse, in vivo, iv, mice, intravenous
Protocol: as §1

[3] = Sprague-Dawley, plasma, iv, i.v. 15 mg/kg, n = 6, mean ± SD
[4] = i.g. 60 mg/kg, n = 6, mean ± SD
[5] = i.p. 80 mg/kg, n = 6, mean ± SD

CNC1CC(=S)N2CC3CCCN4CCCC(C34)C2C1 [MASM, (6aS, 10S, 11aR, 11bR, 11cS)-10-methylaminododecahydro-3a, 7a-diaza-benzo (de) anthracene-8-thione]
bioavailability ([1]; Sprague-Dawley, plasma, intraperitoneal, i.p. 80 mg/kg vs i.v. 15 mg/kg, n = 6, mean ± SD, read-out: F(%) bioavailability): 54 ± 19.4% | Cmax ([1]; Sprague-Dawley, plasma, ip, i.p. 80 mg/kg, n = 6, mean ± SD): 2210 ± 930 ng/mL | half-life ([1]; Sprague-Dawley, plasma, ip, i.p. 80 mg/kg, n = 6, mean ± SD, read-out: t 1/2 (elimination half-life) (converted)): 9.97 ± 3.95 h | Cmax [1, 3]: 780 ± 540 ng/mL | clearance [1, 3]: 71.7 mL/min/kg | Vd ([1]; Sprague-Dawley, plasma, iv, i.v. 15 mg/kg, n = 6, mean ± SD, read-out: V d (apparent volume of distribution)): 36.6 ± 17.8 L/kg | half-life ([1]; Sprague-Dawley, plasma, iv, i.v. 15 mg/kg, n = 6, mean ± SD, read-out: t 1/2 (elimination half-life) (converted)): 10.5 ± 8.84 h | bioavailability ([1]; Sprague-Dawley, plasma, oral, i.g. 60 mg/kg vs i.v. 15 mg/kg, n = 6, mean ± SD, read-out: F(%) absolute intragastrical bioavailability): 44.5 ± 12.3% | half-life ([1]; Sprague-Dawley, plasma, other: intravenous, intravenous, intraperitoneal or intragastric, read-out: t1/2 regardless of the route of administration (converted)): ~10 h | Cmax ([1]; Sprague-Dawley, plasma, po, i.g. 60 mg/kg, n = 6, mean ± SD): 1380 ± 570 ng/mL | half-life ([1]; Sprague-Dawley, plasma, po, i.g. 60 mg/kg, n = 6, mean ± SD, read-out: t 1/2 (elimination half-life) (converted)): 10.2 ± 4.95 h | Tmax ([1]; Sprague-Dawley, plasma, ip, 80 mg/kg, i.p. 80 mg/kg, n = 6, mean ± SD): 0.21 ± 0.04 h | AUC(0-t) ([1]; Sprague-Dawley, plasma, ip, 80 mg/kg, i.p. 80 mg/kg, n = 6, mean ± SD, read-out: AUC(0–24)): 15600 ± 5610 ng·h/mL | AUC(0-t) ([1]; Sprague-Dawley, plasma, ip, 80 mg/kg, i.p. 80 mg/kg, n = 6, mean ± SD, read-out: AUC(0–t)): 12400 ± 5320 ng·h/mL | Tmax ([1]; Sprague-Dawley, plasma, iv, 15 mg/kg, i.v. 15 mg/kg, n = 6, mean ± SD): 0.17 ± 0.17 h | AUC(0-t) ([1]; Sprague-Dawley, plasma, iv, 15 mg/kg, i.v. 15 mg/kg, n = 6, mean ± SD, read-out: AUC(0–24)): 5410 ± 3220 ng·h/mL | AUC(0-t) ([1]; Sprague-Dawley, plasma, iv, 15 mg/kg, i.v. 15 mg/kg, n = 6, mean ± SD, read-out: AUC(0–t)): 4280 ± 2400 ng·h/mL | Tmax ([1]; Sprague-Dawley, plasma, po, 60 mg/kg, i.g. 60 mg/kg, n = 6, mean ± SD): 1.3 h | AUC(0-t) ([1]; Sprague-Dawley, plasma, po, 60 mg/kg, i.g. 60 mg/kg, n = 6, mean ± SD, read-out: AUC(0–24)): 13700 ± 7550 ng·h/mL | AUC(0-t) ([1]; Sprague-Dawley, plasma, po, 60 mg/kg, i.g. 60 mg/kg, n = 6, mean ± SD, read-out: AUC(0–t)): 10900 ± 4780 ng·h/mL | CL [1, 4]: 93.3 ± 49 mL/min/kg | V d (apparent volume of distribution) [1, 4]: 69.43 ± 22.58 L/kg | CL [1, 5]: 95.5 ± 33.8 mL/min/kg | V d (apparent volume of distribution) [1, 5]: 84.74 ± 57.17 L/kg | viscera indices (visceral weight to body weight) of heart, liver, spleen, lung, kidney (ICR mice; day 14, vs control group, all dosages): no significant alterations; also recorded: remained unchanged | heart histopathology (HE staining) (ICR mice; high (240 mg/kg) and medium-high (144 mg/kg) dose groups): noticeable increase in myocardial fiber density | spleen histopathology (HE staining) (ICR mice; high and medium-high dose groups vs control): slight increase in the count of splenic sinusoids and lymph nodes | liver histopathology (HE staining) (ICR mice; high and medium-high dose groups, accompanied by portal area bleeding): noteworthy escalation in the number of hepatocytes | kidney histopathology (HE staining) (ICR mice; high-dose group (240 mg/kg)): proliferation and dense arrangement, accompanied by evident bleeding | lung histopathology (HE staining), alveolar cavity (ICR mice; high-dose group (240 mg/kg)): widened, accompanied by hemorrhaging | lung histopathology (HE staining), alveolar wall (ICR mice; medium-dose to low-dose groups): slight thinning | kidney histopathology, renal interstitial blood vessels (ICR mice; medium-high and medium-dose groups): proliferation and dilation | ALP activity in plasma vs control (ICR mice; mice, day 14, p > 0.05): no statistically significant differences | ALT activity in plasma vs control (ICR mice; mice, day 14, p > 0.05): no statistically significant differences | AST activity in plasma vs control (ICR mice; mice, day 14, p > 0.05): no statistically significant differences | albumin (ALB) level in plasma vs control (ICR mice; mice, day 14, p > 0.05): no statistically significant differences | creatinine (CREA) level in plasma vs control (ICR mice; mice, day 14, p > 0.05): statistically indistinguishable from those of the control group; also recorded: no statistically significant differences | total protein (TP) level in plasma vs control (ICR mice; mice, day 14, p > 0.05): no statistically significant differences | urea (UREA) level in plasma vs control (ICR mice; mice, day 14, p > 0.05): statistically indistinguishable from those of the control group; also recorded: no statistically significant differences | symptoms upon death (ICR mice; mice, intravenous): convulsions, increased salivary secretion, urination, and defecation | overall histopathological changes of primary organs (ICR mice; particularly low (31.1 mg/kg), medium-low (51.84 mg/kg), medium (86.4 mg/kg) dose groups): no significant alterations; also recorded: no substantial pathological alterations; also recorded: did not reveal any significant pathological changes | LD50 at 14 day ([2]; 14-day observation, read-out: LD50): 94.2 mg/kg | LD50 at 14 day ([2]; read-out: LD50, 95% confidence interval): 70.8 to 129 mg/kg
